From patent US6476254B1, “Alkoxylated fatty alcohol dicarboxylic acid esters” (Croda Inc., priority 1998, dated 2002)

Experiments:
[1] = Skin spread factor (product spread on forearm circle, 15 minutes, FD&C Blue No. 1 staining); type: in vivo; settings: resulting area divided by initial area after fifteen minute spread; FIG. 1A
Method: The skin spread factor is determined by applying, for example, 5 microliters of a product to a 3.14 cm diameter circle on the volar surface of the forearm. The product is spread evenly within the circle and allowed to spread for a fifteen minute period. The test site and surrounding area of the forearm is then sprayed with a 1 percent solution of FD&C Blue No. 1. The area not stained by the blue dye indicates the area onto which the product spread. The skin spread factor is obtained by dividing the resulting area by the initial area. In accordance with the present invention, formulations have a skin spread factor of less than about 8, preferably less than about 5.

[2] = Pigment wetting: viscosity of ester/pigment slurry; type: physicochemical; settings: for viscosity (pigment wetting): FIG. 1B, dye slurry, 65% ester, 35% pigment, after standing five minutes
Method: Pigment wetting properties are determined by preparing a dye slurry and measuring viscosity. For example, a slurry can be prepared using an alkoxylated fatty alcohol dicarboxylic acid ester of the present invention mixed with 35 percent mica or any dye. The viscosity of the slurry is determined after allowing the slurry to stand for five minutes. The lower the viscosity, the better the pigment wetting properties of the ester. Desirably, in accordance with the present invention, viscosity of the resulting dye slurry will be below about 20,000 cps, preferably between about 500 and 15,000 cps and most preferably between about 500 and 5,000 cps based on a 65% ester, 35% pigment mixture (measured in weight percent). Viscosity will vary if a different testing mixture is used.

skin spread factor [1]	viscosity (pigment wetting) [2]	viscosity ([2]; test mixture not stated at this place)	Compound
relatively low	> 15,000 cps		CCCCCCCC/C=C\CCCCCCCCCCCC(=O)OCCCCCCCCCCCCCCCCCCCCCCCC [LGE, Lignoceryl Erucate]
very high	under 1000 cps		CCCCCCCCCCCCCOC(=O)C(C)(C)C [TDNP, Tridecyl Neopentanoate]
2.9		18,000 cps	Bis (PPG2, PEG10 Myristyl) adipate
about 3.8	about 1200 cps		Di-PPG-3 Myristyl Ether Adipate [DP3A]
very low	~20,000 cps		Pentaerythrityl Tetraisostearate [PTIS]
